Earlier results in US9526803B2, “Diagnostic chewing gum for pathogens” (Julius-Maximilians-Universitaet Wuerzburg, priority 2012, dated 2016).
Where a name gives a salt, the structure may show the parent alone.

How the values were obtained:
[1] = system: human tongue; details: average human
[2] = system: gustatory system; details: reference for calibration of volunteers; bitter value 10,000 = 1 g in 10,000 mL water barely recognized as bitter

| Compound | concentration sensed down to (taste recognition threshold) [1] [mM] | bitter value [2] |
| --- | --- | --- |
| O=C1NS(=O)(=O)c2ccccc21 [saccharin] | 0.02 | – |
| C=C[C@H]1C[N@@]2CC[C@H]1C[C@H]2[C@H](O)c1ccnc2ccc(OC)cc12 [quinine-HCl] | – | 200,000 |
| C=C[C@H]1C[N@@]2CC[C@H]1C[C@H]2[C@H](O)c1ccnc2ccc(OC)cc12 [Quinine sulfate] | 0.0004 | – |
